From publication PMC3154012 (Journal of the American Chemical Society, 2011) come the findings set out here.

By Kd is commonly meant the constant that tells how readily two partners part at equilibrium. Read a low Kd as tighter binding.

Assay [1] concerns the target T1, Mn-BM3h (wild-type cytochrome P450 BM3 heme domain) (Priestia megaterium, UniProt P14779).
T1 sequence (P14779 2-464 limits assumed): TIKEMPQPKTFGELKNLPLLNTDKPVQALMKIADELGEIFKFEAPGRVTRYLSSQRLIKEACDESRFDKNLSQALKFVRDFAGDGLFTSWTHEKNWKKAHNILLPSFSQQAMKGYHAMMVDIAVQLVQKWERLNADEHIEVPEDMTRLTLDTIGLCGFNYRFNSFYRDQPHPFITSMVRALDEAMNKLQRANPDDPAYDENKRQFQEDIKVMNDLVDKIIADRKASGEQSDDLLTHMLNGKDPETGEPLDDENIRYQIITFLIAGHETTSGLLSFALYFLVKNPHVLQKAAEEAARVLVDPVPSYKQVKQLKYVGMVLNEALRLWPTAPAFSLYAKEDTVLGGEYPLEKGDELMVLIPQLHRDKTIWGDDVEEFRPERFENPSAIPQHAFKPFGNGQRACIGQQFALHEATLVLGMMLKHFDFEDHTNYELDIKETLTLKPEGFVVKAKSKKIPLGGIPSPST
Kind of assay: optical absorbance titration. In kind it is binding.

Assay [2] concerns the target Mn-C1634 (thermostable chimeric P450 heme domain C1634). Kind of assay: optical absorbance titration, two-component binding fit. Further details: species or system Priestia megaterium; Bacillus subtilis. Particulars: Mn(III)-PPIX in place of heme; PBS; 5 μM protein.

`CCCCC/C=C\C/C=C\C/C=C\C/C=C\CCCC(=O)O` [AA, arachidonic acid]: the Kd in assay [1] is 700 ± 500 nM; in assay [2], 2500 ± 700 nM.
